Test results from article PMC6556873, “Rapid Covalent-Probe Discovery by Electrophile-Fragment Screening” (Journal of the American Chemical Society, 2019).
Read-outs that look alike come from different tables or passages of the source.

Columns and labels:
BSA = target: T1, BSA (Bos taurus, UniProt P02769); set-up: Intact protein LC/MS covalent labelling, fragments in pools of five, 200 uM each, 4 °C; conditions: 24 h, 4 °C, pool of five; 200 µM; covalent
T1 construct: gene ALB

NNMT (hNNMT) = target: T2, NNMT (hNNMT) (Homo sapiens, UniProt P40261); set-up: Intact protein LC/MS covalent labelling, fragments in pools of five, 200 uM each, 4 °C; conditions: 24 h, 4 °C, pool of five; 200 µM; covalent
T2 construct: wild type, N-terminal His6 tag kept (no cleavage described), E. coli, construct 31248 Da
T2 sequence (P40261 1-264): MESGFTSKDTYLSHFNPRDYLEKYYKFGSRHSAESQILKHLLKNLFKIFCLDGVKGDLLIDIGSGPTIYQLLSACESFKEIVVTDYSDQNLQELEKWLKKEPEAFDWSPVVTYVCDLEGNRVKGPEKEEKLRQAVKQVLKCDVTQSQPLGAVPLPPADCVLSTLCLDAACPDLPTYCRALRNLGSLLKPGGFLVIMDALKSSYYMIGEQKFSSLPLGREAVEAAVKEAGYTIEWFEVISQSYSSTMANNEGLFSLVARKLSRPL

NUDT7 = target: T3, NUDT7 (Homo sapiens, UniProt P0C024); set-up: Intact protein LC/MS covalent labelling, fragments in pools of five, 200 uM each, 4 °C; conditions: 24 h, 4 °C, pool of five; 200 µM; covalent
T3 construct: residues 14-235, E. coli, pNIC28-Bsa4, N-terminal His6 tag removed by TEV, construct 26672 Da
T3 sequence (P0C024 14-235): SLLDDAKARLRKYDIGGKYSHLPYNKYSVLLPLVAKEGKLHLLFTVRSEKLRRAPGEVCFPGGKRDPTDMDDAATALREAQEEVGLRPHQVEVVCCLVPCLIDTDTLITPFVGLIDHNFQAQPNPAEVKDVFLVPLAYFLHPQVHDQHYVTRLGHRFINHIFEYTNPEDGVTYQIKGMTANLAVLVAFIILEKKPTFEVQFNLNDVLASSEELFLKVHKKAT

OTUB2 (OTUB2A) = target: T4, OTUB2 (OTUB2A) (Homo sapiens, UniProt Q96DC9); set-up: Intact protein LC/MS covalent labelling, fragments in pools of five, 200 uM each, 4 °C; conditions: 24 h, 4 °C, pool of five; 200 µM; covalent
T4 construct: full length residues 1-234, E. coli BL21(DE3)-R3, His tag removed by TEV, construct 27312 Da
T4 sequence (Q96DC9 1-234): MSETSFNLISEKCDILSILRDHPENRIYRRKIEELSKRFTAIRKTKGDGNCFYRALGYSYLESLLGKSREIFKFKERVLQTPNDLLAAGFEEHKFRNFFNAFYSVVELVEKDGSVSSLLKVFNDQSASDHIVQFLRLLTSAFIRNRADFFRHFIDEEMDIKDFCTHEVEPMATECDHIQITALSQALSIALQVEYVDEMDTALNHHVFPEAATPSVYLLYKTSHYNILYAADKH

PCAF = target: T5, PCAF (Homo sapiens, UniProt Q92831); set-up: Intact protein LC/MS covalent labelling, fragments in pools of five, 200 uM each, 4 °C; conditions: 24 h, 4 °C, pool of five; 200 µM; covalent
T5 construct: gene KAT2B
T5 sequence (Q92831 whole entry, the tested form may be a part): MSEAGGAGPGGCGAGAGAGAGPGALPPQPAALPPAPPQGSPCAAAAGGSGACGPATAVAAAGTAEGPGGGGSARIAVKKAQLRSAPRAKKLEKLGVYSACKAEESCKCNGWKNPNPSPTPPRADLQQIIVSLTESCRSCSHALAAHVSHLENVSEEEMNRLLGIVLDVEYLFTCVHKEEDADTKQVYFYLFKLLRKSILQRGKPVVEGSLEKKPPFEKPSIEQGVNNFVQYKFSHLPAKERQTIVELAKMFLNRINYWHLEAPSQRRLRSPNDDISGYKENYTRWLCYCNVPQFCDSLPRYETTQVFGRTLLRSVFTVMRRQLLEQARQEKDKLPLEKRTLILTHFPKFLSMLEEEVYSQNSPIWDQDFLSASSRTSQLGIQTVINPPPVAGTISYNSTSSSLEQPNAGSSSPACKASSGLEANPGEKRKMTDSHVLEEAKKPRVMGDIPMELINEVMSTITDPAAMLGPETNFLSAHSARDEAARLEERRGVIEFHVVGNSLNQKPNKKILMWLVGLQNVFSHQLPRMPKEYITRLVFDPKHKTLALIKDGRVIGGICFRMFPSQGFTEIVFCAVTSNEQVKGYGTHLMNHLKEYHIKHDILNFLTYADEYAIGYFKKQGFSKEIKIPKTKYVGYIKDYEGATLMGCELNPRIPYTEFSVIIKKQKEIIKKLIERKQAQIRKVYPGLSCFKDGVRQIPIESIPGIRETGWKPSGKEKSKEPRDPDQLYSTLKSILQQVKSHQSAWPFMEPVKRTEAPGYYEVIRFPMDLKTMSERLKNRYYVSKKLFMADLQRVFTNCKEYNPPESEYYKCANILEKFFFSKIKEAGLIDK

in vitro [1] = assay: in vitro; set-up: species or system CCD841, HEK293; conditions: human, hb2 cells, read-out: HB-2 Cells Viability (%)
in vitro [2] = assay: in vitro; set-up: species or system HB2, HEK293; conditions: human, ccd841 cells
in vitro [3] = assay: in vitro; set-up: species or system HB2, CCD841; conditions: human, hek293 cells

T1 sequence (P02769 whole entry, the tested form may be a part): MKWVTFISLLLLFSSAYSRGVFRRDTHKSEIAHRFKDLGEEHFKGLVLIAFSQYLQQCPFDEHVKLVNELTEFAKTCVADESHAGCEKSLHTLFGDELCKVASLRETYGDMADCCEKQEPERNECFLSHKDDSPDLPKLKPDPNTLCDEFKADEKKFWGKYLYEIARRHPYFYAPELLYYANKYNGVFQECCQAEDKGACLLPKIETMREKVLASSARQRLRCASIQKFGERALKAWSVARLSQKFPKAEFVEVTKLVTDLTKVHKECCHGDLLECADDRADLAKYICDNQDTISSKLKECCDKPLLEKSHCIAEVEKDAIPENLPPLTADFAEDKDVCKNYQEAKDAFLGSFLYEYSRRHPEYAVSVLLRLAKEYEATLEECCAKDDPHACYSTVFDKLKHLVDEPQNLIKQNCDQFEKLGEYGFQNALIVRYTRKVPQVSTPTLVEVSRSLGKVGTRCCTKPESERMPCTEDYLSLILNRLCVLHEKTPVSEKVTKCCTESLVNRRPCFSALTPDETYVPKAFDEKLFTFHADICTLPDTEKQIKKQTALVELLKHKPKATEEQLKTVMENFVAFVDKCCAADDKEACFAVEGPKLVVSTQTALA

| SMILES | BSA (BSA) | NNMT (NNMT (hNNMT)) | NUDT7 (NUDT7) | OTUB2 (OTUB2 (OTUB2A)) | PCAF (PCAF) | viability at 48 h, 10 µM (in vitro [1]) [%] | viability at 48 h, 10 µM (in vitro [2]) [%] | viability at 48 h, 10 µM (in vitro [3]) [%] |
| --- | --- | --- | --- | --- | --- | --- | --- | --- |
| O=C(CCl)NC(=O)NCc1cccs1 [PCM-0102753] | 0 | 0.55 | 0 | 0.23 | 0 | 61.5 | 71.1 | 55.8 |
| CC(NC(=O)CCl)C(=O)N(C)C (stereo not shown) [PCM-0102754] | 0 | 0 | 0 | 0 | 0 | 96 | 101 | 83.7 |
| O=C(CCl)N(c1ccccc1)C1CCS(=O)(=O)C1 (stereo not shown) [PCM-0102755] | 0 | 0 | 0.17 | 0 | 0 | 28.5 | 20.4 | 16.7 |
| COc1ccc(Cl)cc1C(=O)NNC(=O)CCl [PCM-0102763] | 0 | 0 | 0.1 | 0.64 | 0 | 73.6 | 13.4 | 25.1 |
| C=CC(=O)N1CCCc2c([nH]c3c(F)cccc23)C1 [PCM-0102767] | 0.1 | 0 | 0 | 0 | 0 | 89.2 | 96.6 | 96 |
| CC(C)(C)C(NC(=O)CCl)c1cccs1 (stereo not shown) [PCM-0102773] | 0 | 0 | 0.09 | 0 | 0 | 86.9 | 72.8 | 63.6 |
| O=C(CCl)NNC(=O)C1CC1 [PCM-0102776] | 0 | 0 | 0 | 0.23 | 0 | 93.1 | 88.4 | 90.2 |
| O=C(CCl)N1CCc2ccc([N+](=O)[O-])cc21 [PCM-0102777] | 0 | 0.61 | 0 | 0 | 0 | 1.7 | 2.6 | 17.9 |
| O=C(CCl)Nc1nnn[nH]1 [PCM-0102778] | 0 | 0 | 0 | 0.3 | 0 | 102 | 102 | 120 |
| O=C(CCl)Nc1nnc(CC(F)(F)F)o1 [PCM-0102779] | 0 | 0.24 | 0 | 0 | 0 | 106 | 99.9 | 102 |
| O=C(CCl)N1CCC(C(=O)N2CCCCCC2)CC1 [PCM-0102781] | 0 | 0 | 0 | 0 | 0 | 90.6 | 92.5 | 63.8 |
| O=C(CCl)Nc1nc(-c2cccs2)cs1 [PCM-0102784] | 0 | 0.71 | 0.77 | 0.07 | 0 | 39.8 | 84.9 | 41.3 |
| COC(=O)NC(=O)CCl [PCM-0102791] | 0 | 0 | 0 | 0.09 | 0 | 106 | 123 | 94.3 |
| O=C(CCl)NC(=O)c1ccc[nH]1 [PCM-0102795] | 0 | 0 | 0 | 0 | 0 | 96.2 | 100 | 149 |
| O=C(CCl)Nc1cccc(Cl)c1Cl [PCM-0102797] | 0 | 0 | 0.15 | 0 | 0 | 44.2 | 72.2 | 40.9 |
| CC(NC(=O)CCl)c1ccco1 (stereo not shown) [PCM-0102798] | 0 | 0 | 0.14 | 0.19 | 0 | 95.8 | 97.1 | 88.4 |
| Cc1cc(Br)ccc1NC(=O)CCl [PCM-0102799] | 0 | 0.39 | 0.24 | 0.61 | 0 | 34.9 | 63.3 | 4.7 |
| O=C(CCl)NC1c2ccccc2-c2ccccc21 [PCM-0102802] | 0 | 0 | 0.19 | 0.16 | 0 | 61.8 | 82.7 | 58.9 |
| NS(=O)(=O)c1ccc(NC(=O)CCl)cc1 [PCM-0102807] | 0 | 0 | 0 | 0.29 | 0 | 53.8 | 56.9 | 8 |
| C=CC(=O)N1CCC(c2noc(C3CC3)n2)CC1 [PCM-0102810] | 0 | 0 | 0.06 | 0 | 0 | 103 | 103 | 94.1 |
